Data reported in BigSolDB 2.1.

CS(=O)(=O)c1ccc(C=O)cc1
solubility (mole fraction)
Conditions	in acetic acid	in acetone	in acetonitrile	in ethanol	in isopropanol	in methanol	in n-butanol	in n-propanol	in toluene
283.15 K	0.00336	0.00798	0.00598	0.000869	0.000288	0.00206	0.000596	0.000541	0.000746
285.65 K	0.00368	0.00872	0.00661	0.000944	0.000321	0.0022	0.000652	0.000587	0.000825
288.15 K	0.00401	0.00937	0.00734	0.00103	0.000355	0.00242	0.000724	0.000659	0.000919
290.65 K	0.00445	0.0104	0.00814	0.00117	0.000405	0.00266	0.000828	0.000742	0.00103
293.15 K	0.00488	0.0114	0.00903	0.0013	0.000445	0.00295	0.000923	0.000835	0.00115
295.65 K	0.00539	0.0126	0.0101	0.00143	0.000502	0.00325	0.00102	0.000933	0.00128
298.15 K	0.00598	0.0136	0.0111	0.00158	0.00056	0.00358	0.00114	0.00105	0.00144
300.65 K	0.00662	0.0148	0.0123	0.00174	0.000629	0.00392	0.00128	0.00115	0.00161
303.15 K	0.00727	0.0161	0.0137	0.00192	0.000703	0.00431	0.0014	0.00126	0.0018
305.65 K	0.00811	0.0174	0.0152	0.00212	0.000796	0.00471	0.00155	0.00141	0.002
308.15 K	0.00895	0.0189	0.017	0.00235	0.000894	0.00518	0.00171	0.00157	0.00224
310.65 K	0.00984	0.0206	0.019	0.00258	0.00101	0.00572	0.00191	0.00176	0.0025
313.15 K	0.0108	0.0226	0.021	0.00284	0.00112	0.00623	0.00211	0.00194	0.00276
315.65 K	0.0118	0.0245	0.023	0.00311	0.00125	0.00678	0.00232	0.00216	0.00308
318.15 K	0.0129	0.0269	0.0252	0.00341	0.00139	0.00739	0.0026	0.00241	0.0034
